{
  "source": "BigSolDB 2.1",
  "data": [
    {"molecule": "NS(=O)(=O)Cc1noc2ccccc12", "values": [
      {"measurement": "solubility (mole fraction)", "setting": "in DMF, 278.15 K", "result": 0.0292},
      {"measurement": "solubility (mole fraction)", "setting": "in DMF, 283.15 K", "result": 0.0356},
      {"measurement": "solubility (mole fraction)", "setting": "in DMF, 288.15 K", "result": 0.0428},
      {"measurement": "solubility (mole fraction)", "setting": "in DMF, 293.15 K", "result": 0.0514},
      {"measurement": "solubility (mole fraction)", "setting": "in DMF, 298.15 K", "result": 0.0612},
      {"measurement": "solubility (mole fraction)", "setting": "in DMF, 303.15 K", "result": 0.0721},
      {"measurement": "solubility (mole fraction)", "setting": "in DMF, 308.15 K", "result": 0.0852},
      {"measurement": "solubility (mole fraction)", "setting": "in DMF, 313.15 K", "result": 0.101},
      {"measurement": "solubility (mole fraction)", "setting": "in DMF, 318.15 K", "result": 0.118},
      {"measurement": "solubility (mole fraction)", "setting": "in DMF, 323.15 K", "result": 0.136},
      {"measurement": "solubility (mole fraction)", "setting": "in acetonitrile, 278.15 K", "result": 0.00682},
      {"measurement": "solubility (mole fraction)", "setting": "in acetonitrile, 283.15 K", "result": 0.00802},
      {"measurement": "solubility (mole fraction)", "setting": "in acetonitrile, 288.15 K", "result": 0.00937},
      {"measurement": "solubility (mole fraction)", "setting": "in acetonitrile, 293.15 K", "result": 0.0108},
      {"measurement": "solubility (mole fraction)", "setting": "in acetonitrile, 298.15 K", "result": 0.0124},
      {"measurement": "solubility (mole fraction)", "setting": "in acetonitrile, 303.15 K", "result": 0.0142},
      {"measurement": "solubility (mole fraction)", "setting": "in acetonitrile, 308.15 K", "result": 0.0162},
      {"measurement": "solubility (mole fraction)", "setting": "in acetonitrile, 313.15 K", "result": 0.0183},
      {"measurement": "solubility (mole fraction)", "setting": "in acetonitrile, 318.15 K", "result": 0.0207},
      {"measurement": "solubility (mole fraction)", "setting": "in acetonitrile, 323.15 K", "result": 0.0233},
      {"measurement": "solubility (mole fraction)", "setting": "in ethanol, 278.15 K", "result": 0.00139},
      {"measurement": "solubility (mole fraction)", "setting": "in ethanol, 283.15 K", "result": 0.00162},
      {"measurement": "solubility (mole fraction)", "setting": "in ethanol, 288.15 K", "result": 0.00185},
      {"measurement": "solubility (mole fraction)", "setting": "in ethanol, 293.15 K", "result": 0.00215},
      {"measurement": "solubility (mole fraction)", "setting": "in ethanol, 298.15 K", "result": 0.00245},
      {"measurement": "solubility (mole fraction)", "setting": "in ethanol, 303.15 K", "result": 0.00279},
      {"measurement": "solubility (mole fraction)", "setting": "in ethanol, 308.15 K", "result": 0.00316},
      {"measurement": "solubility (mole fraction)", "setting": "in ethanol, 313.15 K", "result": 0.00356},
      {"measurement": "solubility (mole fraction)", "setting": "in ethanol, 318.15 K", "result": 0.004},
      {"measurement": "solubility (mole fraction)", "setting": "in ethanol, 323.15 K", "result": 0.00446},
      {"measurement": "solubility (mole fraction)", "setting": "in isopropanol, 278.15 K", "result": 0.000797},
      {"measurement": "solubility (mole fraction)", "setting": "in isopropanol, 283.15 K", "result": 0.000963},
      {"measurement": "solubility (mole fraction)", "setting": "in isopropanol, 288.15 K", "result": 0.00115},
      {"measurement": "solubility (mole fraction)", "setting": "in isopropanol, 293.15 K", "result": 0.00137},
      {"measurement": "solubility (mole fraction)", "setting": "in isopropanol, 298.15 K", "result": 0.00163},
      {"measurement": "solubility (mole fraction)", "setting": "in isopropanol, 303.15 K", "result": 0.00192},
      {"measurement": "solubility (mole fraction)", "setting": "in isopropanol, 308.15 K", "result": 0.00226},
      {"measurement": "solubility (mole fraction)", "setting": "in isopropanol, 313.15 K", "result": 0.00264},
      {"measurement": "solubility (mole fraction)", "setting": "in isopropanol, 318.15 K", "result": 0.00306},
      {"measurement": "solubility (mole fraction)", "setting": "in isopropanol, 323.15 K", "result": 0.00352},
      {"measurement": "solubility (mole fraction)", "setting": "in water, 278.15 K", "result": "1.78e-05"},
      {"measurement": "solubility (mole fraction)", "setting": "in water, 283.15 K", "result": "2.5e-05"},
      {"measurement": "solubility (mole fraction)", "setting": "in water, 288.15 K", "result": "3.43e-05"},
      {"measurement": "solubility (mole fraction)", "setting": "in water, 293.15 K", "result": "4.67e-05"},
      {"measurement": "solubility (mole fraction)", "setting": "in water, 298.15 K", "result": "6.49e-05"},
      {"measurement": "solubility (mole fraction)", "setting": "in water, 303.15 K", "result": "8.56e-05"},
      {"measurement": "solubility (mole fraction)", "setting": "in water, 308.15 K", "result": 0.000112},
      {"measurement": "solubility (mole fraction)", "setting": "in water, 313.15 K", "result": 0.00015},
      {"measurement": "solubility (mole fraction)", "setting": "in water, 318.15 K", "result": 0.000196},
      {"measurement": "solubility (mole fraction)", "setting": "in water, 323.15 K", "result": 0.000256}
    ]}
  ]
}
